Results as given in the NIST ThermoML archive (doi:10.1016/j.tca.2010.08.021).
± gives the expanded uncertainty stated by the source.

How the values were obtained:
[1] = Molar enthalpy of transition or fusion; conditions: Crystal; DSC
[2] = Crystal; visual observation

Structure (SMILES)	Molar enthalpy of transition or fusion [1] [kcal/mol]	Normal melting temperature [2] [°C]
O=[N+]([O-])c1c(Cl)c(Cl)c(Cl)c(Cl)c1Cl [pentachloronitrobenzene]	4.59 ± 0.143	145.00 ± 1
N#CCCC#N [butanedinitrile]	0.884 ± 0.0478	57.00 ± 1
